Experimental data: patent US10710978B2, “STK4 inhibitors for treatment of hematologic malignancies” (Dana-Farber Cancer Institute, Inc., priority 2015, dated 2020)
Where two headings read alike, the source gives them in different places.

Key:
STK24 (MST3) = STK24 (MST3) (Homo sapiens (Human), UniProt Q9Y6E0); test: Z-lyte biochemical IC50 assay (Invitrogen); details: ATP concentration matched the Km
Outline: (§1)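 FRET-based Z-lyte kinase assays run at Invitrogen, ATP at each kinase's Km; for STK4, 6.25-160 ng enzyme with 2 μM Ser/Thr 07 peptide in HEPES pH 7.5, MgCl2, EGTA, Brij-35, 1 h reaction then development reagent. 10-point 3-fold titration from 10 μM.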

STK4 (MST1) = STK4 (MST1) (Homo sapiens (Human), UniProt Q13043); test: Z-lyte biochemical IC50 assay (Invitrogen); details: ATP concentration matched the Km
Outline: as §1

MST3 = MST3 (Homo sapiens (Human), UniProt Q9Y6E0); test: KiNativ assay; type: binding; details: H929 live cell
Description: (§2) Biochemical IC50s of the compounds of the present disclosure against various kinases were measured in a KiNativ assay. Compounds were screened in duplicate at 10 μM in H929 live cell. IC50 was measured via Mass spectroscopy (MS).

p38d, p38g = test: KiNativ assay; type: binding; details: H929 live cell
Description: as §2

RSK2 domain1 = RSK2 domain1 (Homo sapiens (Human), UniProt P51812); test: KiNativ assay; type: binding; details: H929 live cell
Description: as §2

CK1g3 = CK1g3 (Homo sapiens (Human), UniProt Q9Y6M4); test: KiNativ assay; type: binding; details: H929 live cell
Description: as §2

p70S6K = p70S6K (Homo sapiens (Human), UniProt P23443); test: KiNativ assay; type: binding; details: H929 live cell
Description: as §2

NEK9 = NEK9 (Homo sapiens (Human), UniProt Q8TD19); test: KiNativ assay; type: binding; details: H929 live cell
Description: as §2

SLK = SLK (Homo sapiens (Human), UniProt Q9H2G2); test: KiNativ assay; type: binding; details: H929 live cell
Description: as §2

MARK2 = MARK2 (Homo sapiens (Human), UniProt Q7KZI7); test: KiNativ assay; type: binding; details: H929 live cell
Description: as §2

MST4, YSK1 = test: KiNativ assay; type: binding; details: H929 live cell
Description: as §2

DGKH = DGKH (Homo sapiens (Human), UniProt Q86XP1); test: KiNativ assay; type: binding; details: H929 live cell
Description: as §2

MAP3K5 = MAP3K5 (Homo sapiens (Human), UniProt Q99683); test: KiNativ assay; type: binding; details: H929 live cell
Description: as §2

MST2 = MST2 (Homo sapiens (Human), UniProt Q13188); test: KiNativ assay; type: binding; details: H929 live cell
Description: as §2

MSK2 domain1 = MSK2 domain1 (Homo sapiens (Human), UniProt O75676); test: KiNativ assay; type: binding; details: H929 live cell
Description: as §2

SNRK = SNRK (Homo sapiens (Human), UniProt Q9NRH2); test: KiNativ assay; type: binding; details: H929 live cell
Description: as §2

Erk1 = Erk1 (Homo sapiens (Human), UniProt P27361); test: KiNativ assay; type: binding; details: H929 live cell
Description: as §2

RSK1 domain2 = RSK1 domain2 (Homo sapiens (Human), UniProt Q15418); test: KiNativ assay; type: binding; details: H929 live cell
Description: as §2

MAP3K4 = MAP3K4 (Homo sapiens (Human), UniProt Q9Y6R4); test: KiNativ assay; type: binding; details: H929 live cell
Description: as §2

p70S6Kb = p70S6Kb (Homo sapiens (Human), UniProt Q9UBS0); test: KiNativ assay; type: binding; details: H929 live cell
Description: as §2

BARK1 = BARK1 (Homo sapiens (Human), UniProt P25098); test: KiNativ assay; type: binding; details: H929 live cell
Description: as §2

LATS1 = LATS1 (Homo sapiens (Human), UniProt O95835); test: KiNativ assay; type: binding; details: H929 live cell
Description: as §2

FER = FER (Homo sapiens (Human), UniProt P16591); test: KiNativ assay; type: binding; details: H929 live cell
Description: as §2

[1] = test system: CaMK2a, CaMK2b, CaMK2d, CaMK2g; test: KiNativ assay; type: binding; details: H929 live cell
Description: as §2

STLK6 = STLK6 (Homo sapiens (Human), UniProt Q9C0K7); test: KiNativ assay; type: binding; details: H929 live cell
Description: as §2

TAO1, TAO3 = test: KiNativ assay; type: binding; details: H929 live cell
Description: as §2

CLK2 = CLK2 (Homo sapiens (Human), UniProt P49760); test: KiNativ assay; type: binding; details: H929 live cell
Description: as §2

MSK1 domain1 = MSK1 domain1 (Homo sapiens (Human), UniProt O75582); test: KiNativ assay; type: binding; details: H929 live cell
Description: as §2

Wnk1, Wnk2, Wnk3 = test: KiNativ assay; type: binding; details: H929 live cell
Description: as §2

[2] = range class, read-out: % inhibition

Chain of MAP3K4 (Q9Y6R4 whole entry): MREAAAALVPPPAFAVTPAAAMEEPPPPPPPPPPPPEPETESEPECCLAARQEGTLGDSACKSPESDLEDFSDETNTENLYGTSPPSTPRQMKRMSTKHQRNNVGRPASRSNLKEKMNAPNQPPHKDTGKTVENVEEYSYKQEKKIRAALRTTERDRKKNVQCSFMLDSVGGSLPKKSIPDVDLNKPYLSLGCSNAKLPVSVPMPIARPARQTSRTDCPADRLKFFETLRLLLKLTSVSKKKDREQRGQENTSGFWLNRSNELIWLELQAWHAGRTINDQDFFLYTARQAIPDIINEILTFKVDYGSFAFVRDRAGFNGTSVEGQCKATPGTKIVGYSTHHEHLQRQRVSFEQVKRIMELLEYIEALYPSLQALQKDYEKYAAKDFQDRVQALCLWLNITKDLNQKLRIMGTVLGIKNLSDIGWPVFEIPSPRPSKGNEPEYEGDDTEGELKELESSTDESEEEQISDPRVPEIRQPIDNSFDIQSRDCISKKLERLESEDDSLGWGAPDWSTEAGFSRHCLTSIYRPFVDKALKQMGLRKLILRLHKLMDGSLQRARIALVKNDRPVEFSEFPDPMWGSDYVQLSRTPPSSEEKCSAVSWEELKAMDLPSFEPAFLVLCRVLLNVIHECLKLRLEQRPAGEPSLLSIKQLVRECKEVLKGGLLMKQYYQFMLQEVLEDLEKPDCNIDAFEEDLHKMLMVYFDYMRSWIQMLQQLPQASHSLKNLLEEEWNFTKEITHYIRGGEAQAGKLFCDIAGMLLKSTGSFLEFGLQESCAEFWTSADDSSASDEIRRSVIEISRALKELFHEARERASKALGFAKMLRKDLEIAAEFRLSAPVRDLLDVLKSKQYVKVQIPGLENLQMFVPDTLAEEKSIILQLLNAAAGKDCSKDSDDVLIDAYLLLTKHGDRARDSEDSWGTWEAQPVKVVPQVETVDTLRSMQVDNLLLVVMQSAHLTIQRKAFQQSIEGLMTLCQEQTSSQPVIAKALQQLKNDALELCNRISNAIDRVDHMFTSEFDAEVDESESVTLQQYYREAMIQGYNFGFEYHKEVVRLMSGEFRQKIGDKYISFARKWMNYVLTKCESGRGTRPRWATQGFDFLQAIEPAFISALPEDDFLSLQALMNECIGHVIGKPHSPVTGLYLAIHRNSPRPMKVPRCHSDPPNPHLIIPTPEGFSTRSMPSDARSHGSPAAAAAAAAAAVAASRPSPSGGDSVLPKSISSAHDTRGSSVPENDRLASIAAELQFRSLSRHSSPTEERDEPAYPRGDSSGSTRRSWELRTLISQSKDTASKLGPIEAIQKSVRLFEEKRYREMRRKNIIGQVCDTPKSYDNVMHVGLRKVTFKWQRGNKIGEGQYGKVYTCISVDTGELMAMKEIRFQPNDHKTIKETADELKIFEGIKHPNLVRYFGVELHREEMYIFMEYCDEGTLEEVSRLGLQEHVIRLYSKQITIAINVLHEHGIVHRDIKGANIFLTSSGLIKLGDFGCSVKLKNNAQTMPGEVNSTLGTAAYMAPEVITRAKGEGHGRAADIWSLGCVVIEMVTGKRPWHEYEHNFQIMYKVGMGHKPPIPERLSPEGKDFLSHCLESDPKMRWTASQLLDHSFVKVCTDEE
Chain of FER (P16591 whole entry): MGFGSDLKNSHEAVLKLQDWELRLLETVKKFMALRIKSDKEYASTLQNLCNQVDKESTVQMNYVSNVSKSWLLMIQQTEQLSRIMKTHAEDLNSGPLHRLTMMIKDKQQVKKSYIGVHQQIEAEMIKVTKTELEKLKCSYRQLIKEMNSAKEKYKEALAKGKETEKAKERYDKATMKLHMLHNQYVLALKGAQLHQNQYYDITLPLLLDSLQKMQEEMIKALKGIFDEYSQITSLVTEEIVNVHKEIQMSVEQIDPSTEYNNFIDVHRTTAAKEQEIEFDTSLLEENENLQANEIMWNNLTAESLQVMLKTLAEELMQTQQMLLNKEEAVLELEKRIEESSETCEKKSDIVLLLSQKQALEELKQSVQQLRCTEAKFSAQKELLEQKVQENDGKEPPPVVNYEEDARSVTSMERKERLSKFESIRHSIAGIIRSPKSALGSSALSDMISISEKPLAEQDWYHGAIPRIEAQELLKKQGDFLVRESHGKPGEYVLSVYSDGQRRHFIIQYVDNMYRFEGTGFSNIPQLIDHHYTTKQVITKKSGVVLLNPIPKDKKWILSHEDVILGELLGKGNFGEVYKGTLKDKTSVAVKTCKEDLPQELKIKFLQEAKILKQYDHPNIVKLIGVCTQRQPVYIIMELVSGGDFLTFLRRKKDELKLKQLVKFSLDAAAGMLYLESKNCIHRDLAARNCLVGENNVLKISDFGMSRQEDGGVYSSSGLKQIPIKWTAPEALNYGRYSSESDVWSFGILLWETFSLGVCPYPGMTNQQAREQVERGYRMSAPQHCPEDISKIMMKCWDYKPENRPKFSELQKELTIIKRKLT
Chain of CLK2 (P49760 whole entry): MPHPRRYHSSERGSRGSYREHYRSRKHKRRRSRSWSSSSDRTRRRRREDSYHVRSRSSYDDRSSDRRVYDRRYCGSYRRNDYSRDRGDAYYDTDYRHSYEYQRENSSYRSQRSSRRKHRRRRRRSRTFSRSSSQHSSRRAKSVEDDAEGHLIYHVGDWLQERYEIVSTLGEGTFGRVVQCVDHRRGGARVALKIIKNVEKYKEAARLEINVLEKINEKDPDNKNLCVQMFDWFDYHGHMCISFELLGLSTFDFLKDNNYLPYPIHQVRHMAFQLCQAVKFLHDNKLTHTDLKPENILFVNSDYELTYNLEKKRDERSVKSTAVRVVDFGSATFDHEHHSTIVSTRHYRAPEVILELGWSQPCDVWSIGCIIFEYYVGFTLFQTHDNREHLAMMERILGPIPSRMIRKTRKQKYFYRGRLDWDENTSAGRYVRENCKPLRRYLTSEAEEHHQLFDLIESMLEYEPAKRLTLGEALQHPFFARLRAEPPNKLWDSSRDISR
Chain of RSK2 domain1 (P51812 whole entry, the tested form may be a part): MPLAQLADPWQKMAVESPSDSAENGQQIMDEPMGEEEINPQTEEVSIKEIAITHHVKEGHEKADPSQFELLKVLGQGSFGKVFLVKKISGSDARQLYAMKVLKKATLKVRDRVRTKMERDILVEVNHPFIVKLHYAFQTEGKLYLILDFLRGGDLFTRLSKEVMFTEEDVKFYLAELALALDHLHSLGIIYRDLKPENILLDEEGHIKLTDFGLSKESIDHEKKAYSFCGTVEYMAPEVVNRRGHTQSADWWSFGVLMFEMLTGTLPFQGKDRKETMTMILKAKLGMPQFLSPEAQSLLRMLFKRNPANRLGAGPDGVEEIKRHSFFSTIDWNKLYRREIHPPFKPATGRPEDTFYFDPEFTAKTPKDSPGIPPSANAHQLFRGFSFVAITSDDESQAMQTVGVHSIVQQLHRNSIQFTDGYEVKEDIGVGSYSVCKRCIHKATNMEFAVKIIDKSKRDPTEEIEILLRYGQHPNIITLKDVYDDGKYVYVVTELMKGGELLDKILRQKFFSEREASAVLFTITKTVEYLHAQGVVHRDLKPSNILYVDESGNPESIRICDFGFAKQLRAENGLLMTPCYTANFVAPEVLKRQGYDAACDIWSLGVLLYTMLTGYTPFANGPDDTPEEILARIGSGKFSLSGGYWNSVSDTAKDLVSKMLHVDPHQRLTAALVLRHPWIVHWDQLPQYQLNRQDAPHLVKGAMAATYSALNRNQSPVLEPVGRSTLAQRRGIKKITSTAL
Chain of RSK1 domain2 (Q15418 whole entry, the tested form may be a part): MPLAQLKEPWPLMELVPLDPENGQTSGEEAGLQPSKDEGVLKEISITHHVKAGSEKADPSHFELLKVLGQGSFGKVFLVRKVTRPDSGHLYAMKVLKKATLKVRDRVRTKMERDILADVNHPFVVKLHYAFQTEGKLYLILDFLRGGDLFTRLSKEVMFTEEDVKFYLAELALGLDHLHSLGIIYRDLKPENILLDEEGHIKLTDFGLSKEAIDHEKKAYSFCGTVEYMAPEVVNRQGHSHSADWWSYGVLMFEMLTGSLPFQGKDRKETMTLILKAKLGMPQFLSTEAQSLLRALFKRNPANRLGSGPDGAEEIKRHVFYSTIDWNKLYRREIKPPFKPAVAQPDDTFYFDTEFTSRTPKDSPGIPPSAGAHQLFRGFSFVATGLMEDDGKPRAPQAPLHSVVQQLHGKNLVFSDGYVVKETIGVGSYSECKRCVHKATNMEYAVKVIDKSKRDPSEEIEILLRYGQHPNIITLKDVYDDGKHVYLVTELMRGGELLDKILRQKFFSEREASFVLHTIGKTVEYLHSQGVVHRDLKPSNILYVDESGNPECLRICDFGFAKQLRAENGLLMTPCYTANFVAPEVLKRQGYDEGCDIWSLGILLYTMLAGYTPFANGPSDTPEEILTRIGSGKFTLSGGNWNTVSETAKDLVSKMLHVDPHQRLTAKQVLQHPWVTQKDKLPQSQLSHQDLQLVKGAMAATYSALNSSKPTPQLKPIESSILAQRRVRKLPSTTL
Chain of Erk1 (P27361 whole entry): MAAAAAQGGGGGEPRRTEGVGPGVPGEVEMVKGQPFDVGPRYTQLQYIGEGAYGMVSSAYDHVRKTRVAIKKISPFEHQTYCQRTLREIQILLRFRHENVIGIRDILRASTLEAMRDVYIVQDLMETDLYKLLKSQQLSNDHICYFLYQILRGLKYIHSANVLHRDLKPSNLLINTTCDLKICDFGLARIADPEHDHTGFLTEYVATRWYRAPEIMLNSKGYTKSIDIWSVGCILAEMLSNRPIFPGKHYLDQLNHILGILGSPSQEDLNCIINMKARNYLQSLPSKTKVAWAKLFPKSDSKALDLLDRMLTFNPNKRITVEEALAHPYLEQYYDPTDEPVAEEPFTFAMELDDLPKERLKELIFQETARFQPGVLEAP

Nc1ncc(-c2ccc(NS(=O)(=O)C3CC3)cc2F)cc1-c1ccc2c(c1)CCNC2=O [Compound I-51, N-(4-(6-amino-5-(1-oxo-1,2,3,4-tetrahydroisoquinolin-6-yl)pyridin-3-yl)-3-fluorophenyl) cyclopropanesulfonamide]
IC50 (STK24 (MST3)): 40 to 200 nM | IC50 (STK4 (MST1)): < 40 nM | inhibition at 10 µM (MST3; [2]): 50 to 75% | inhibition at 10 µM (MST3; read-out: inhibition (10 μM)): 53.3% | % inhibition (p38d, p38g; 10 μM, range class): 0.0% | inhibition (10 μM) (p38d, p38g): 2.3% | inhibition at 10 µM (RSK2 domain1; [2]): 35 to 40% | inhibition at 10 µM (RSK2 domain1; read-out: inhibition (10 μM)): 49.9% | inhibition at 10 µM (CK1g3; [2]): 75 to 90% | inhibition at 10 µM (CK1g3; read-out: inhibition (10 μM)): 88.2% | inhibition at 10 µM (p70S6K; [2]): 0% | inhibition at 10 µM (p70S6K; read-out: inhibition (10 μM)): -21.6% | inhibition at 10 µM (NEK9; [2]): 0% | inhibition at 10 µM (NEK9; read-out: inhibition (10 μM)): -20.8% | inhibition at 10 µM (SLK; [2]): 75 to 90% | inhibition at 10 µM (SLK; read-out: inhibition (10 μM)): 85.6% | inhibition at 10 µM (MARK2; [2]): 0% | inhibition at 10 µM (MARK2; read-out: inhibition (10 μM)): 24.6% | % inhibition (MST4, YSK1; 10 μM, range class): 50-75% | inhibition (10 μM) (MST4, YSK1): 68.1% | inhibition at 10 µM (DGKH; [2]): 0% | inhibition at 10 µM (DGKH; read-out: inhibition (10 μM)): 2.7% | inhibition at 10 µM (MAP3K5; [2]): 0% | inhibition at 10 µM (MAP3K5; read-out: inhibition (10 μM)): 16.3% | inhibition at 10 µM (MST2; [2]): > 90% | inhibition at 10 µM (MST2; read-out: inhibition (10 μM)): 95.3% | inhibition at 10 µM (MSK2 domain1; [2]): 0% | inhibition at 10 µM (MSK2 domain1; read-out: inhibition (10 μM)): -8% | inhibition at 10 µM (SNRK; [2]): 0% | inhibition at 10 µM (SNRK; read-out: inhibition (10 μM)): -26.2% | inhibition at 10 µM (Erk1; [2]): 0% | inhibition at 10 µM (Erk1; read-out: inhibition (10 μM)): 29.2% | inhibition at 10 µM (RSK1 domain2; [2]): 0% | inhibition at 10 µM (RSK1 domain2; read-out: inhibition (10 μM)): 11% | inhibition at 10 µM (MAP3K4; [2]): 0% | inhibition at 10 µM (MAP3K4; read-out: inhibition (10 μM)): 24.2% | inhibition at 10 µM (p70S6Kb; [2]): 0% | inhibition at 10 µM (p70S6Kb; read-out: inhibition (10 μM)): 5.5% | inhibition at 10 µM (BARK1; [2]): 0% | inhibition at 10 µM (BARK1; read-out: inhibition (10 μM)): -5.1% | inhibition at 10 µM (LATS1; [2]): 0% | inhibition at 10 µM (LATS1; read-out: inhibition (10 μM)): 3.9% | inhibition at 10 µM (FER; [2]): 0% | inhibition at 10 µM (FER; read-out: inhibition (10 μM)): 13.4% | % inhibition ([1]; 10 μM, range class): 0.0% | inhibition (10 μM) [1]: 19.2% | inhibition at 10 µM (STLK6; [2]): 0% | inhibition at 10 µM (STLK6; read-out: inhibition (10 μM)): -15% | % inhibition (TAO1, TAO3; 10 μM, range class): 75-90% | inhibition (10 μM) (TAO1, TAO3): 80.4% | inhibition at 10 µM (CLK2; [2]): 50 to 75% | inhibition at 10 µM (CLK2; read-out:): 65.3% | inhibition at 10 µM (MSK1 domain1; [2]): 0% | inhibition at 10 µM (MSK1 domain1; read-out: inhibition (10 μM)): 11.4% | % inhibition (Wnk1, Wnk2, Wnk3; 10 μM, range class): 0.0% | inhibition (10 μM) (Wnk1, Wnk2, Wnk3): 0.2%
